Assays:
[1] = system: DAHP synthase isozymes of higher plants; assay: inhibition of DAHP synthase isozymes of higher plants; format: biochemical; details: two separately compartmented isozymes
Text: The early amino acid pathway circuit entails the feedback inhibition of 3-deoxy-D-arabinoheptulosonate 7-P (DAHP) synthase by chorismate. Thus, the DAHP synthase of Xanthomonas offers unique target of vulnerability in nature since an appropriate analog mimic of chorismate produces false feedback inhibition of DAHP synthase in Xanthomonas but not in the higher plant host. […] Step two of the claimed process has thus been completed.
The DAHP synthase of xanthomonads is also sensitive to inhibition by L-tryptophan. […] Thus, analog mimics of L-tryptophan attack a second site within the basic DAHP synthase target of Xanthomonas.

[2] = system: a variety of bacteria, including N. gonorrhoeae; assay: energy drain / PEP depletion in bacteria after EPSP synthase block; format: cell-based
Text: The enzymic target of N-(phosphonomethyl) glycine action is not present in mammalian systems, therefore, N-(phosphonomethyl) glycine is not toxic to the human host. Because N-(phosphonomethyl) glycine acts on an enzyme which is present in pathogenic bacteria but not in the human host, this compound could be used as an effective control agent for bacterial pathogens.

[3] = system: microbial prephenate dehydrogenase; assay: substrate utilization by microbial prephenate dehydrogenase; format: biochemical
Text: (§1) Therefore, prephenyllactate is an appropriate prephenate analog for the control of phytopathogens.

[4] = system: cyclohexadienyl dehydrogenase; assay: substrate utilization by cyclohexadienyl dehydrogenase; format: biochemical
Text: as §1

arogenate dehydrogenase = assay: substrate utilization by arogenate dehydrogenase enzymes; format: biochemical
Text: as §1

[5] = system: 3-deoxy-D-arabino-heptulosonate 7-phosphate synthase; assay: feedback inhibition of chloroplast DAHP synthase; format: biochemical, higher plants; details: higher-plant chloroplasts
Text: Because L-arogenate regulates aromatic amino acid biosynthesis in the chloroplast by feedback inhibition exerted upon the initial enzyme of aromatic biosynthesis, it provides an excellent point of attack. Application of L-arogenate or an L-arogenate-type compound will cause a serious disturbance of the feedback inhibition mechanism of this crucial metabolic pathway.

C=C(O[C@@H]1C=C(C(=O)O)C=C[C@H]1O)C(=O)O [chorismate]
sensitivity of higher-plant DAHP synthase isozymes to inhibition [1]: neither sensitive to inhibition

O=C(O)CNCP(=O)(O)O [N-(phosphonomethyl) glycine]
drain upon intracellular supplies of PEP ([2]; even at microgram levels, shikimate-3-phosphate accumulates): produces a drain upon intracellular supplies of PEP
energy drain from depletion of PEP and ATP ([2]; variety of bacteria, including N. gonorrhoeae): severe energy drain

O=C(O)C(O)CC1(C(=O)O)C=CC(O)C=C1 (stereo not drawn) [prephenyllactate, β-(1-carboxyl-4-hydroxy-2,5-cyclohexadien-1-yl) lactic acid]
utilization as substrate by microbial prephenate dehydrogenase [3]: as a substrate quite well
utilization as substrate by cyclohexadienyl dehydrogenase [4]: as a substrate quite well
utilization as substrate by arogenate dehydrogenase enzymes (arogenate dehydrogenase): do not use prephenyllactate as a substrate

N[C@@H](Cc1c[nH]c2ccccc12)C(=O)O [L-tryptophan]
sensitivity of higher-plant DAHP synthase isozymes to inhibition [1]: not affected

N[C@@H](CC1(C(=O)O)C=CC(O)C=C1)C(=O)O (stereo partly drawn) [L-arogenate]
feedback inhibition of the initial enzyme of aromatic biosynthesis [5]: feedback inhibitor

— patent US5187071A, “Method for the selective control of weeds, pests, and microbes” (priority 1988, dated 1993)
